Test results reported in ChEMBL document CHEMBL1151176, “Isolation of nor-secofriedelanes from the sedative extracts of Galphimia glauca” (2004).

Columns and labels:
Type in all cases: functional
Details in all cases: read-out: ED50 (the source's name)
[1] = system: KB; assay: Cytotoxicity against human KB cells
[2] = system: HCT-15; assay: Cytotoxicity against human HCT15 cells
[3] = system: OVCAR; assay: Cytotoxicity against human OVCAR cells
[4] = Cytotoxicity against human SQC1 cells

Measured: EC50

COC(=O)[C@@]12CC[C@@]3(C)[C@@H]4C=CC(=O)OC[C@]4([C@@H](C)O)[C@@H](O)[C@@H](O)[C@@H]3[C@@]1(C)CC[C@@]1(C)CC=C(C)C[C@]12O [GALPHIMINE A]
> 4 µg/mL: [1] | [2] | [3] | [4]

COC(=O)[C@@]12CC[C@@]3(C)[C@@H]4C=CC(=O)OC[C@]4([C@@H](C)O)C[C@@H](O)[C@@H]3[C@@]1(C)CC[C@@]1(C)CC=C(C)C[C@]12O [GALPHIMINE B]
> 4 µg/mL: [1] | [2] | [3] | [4]

COC(=O)[C@@]12CC[C@@]3(C)[C@@H]4C=CC(=O)OC[C@]4([C@@H](C)O)C[C@@H](O)[C@@H]3[C@@]1(C)CC[C@@]1(C)CCC(C)=C[C@]12O [GALPHIMINE C]
> 4 µg/mL: [1] | [2] | [3] | [4]

COC(=O)[C@@]12CC[C@@]3(C)[C@@H]4C=CC(=O)OC[C@]4([C@H](C)O)[C@@H](O)[C@@H](OC(C)=O)[C@@H]3[C@@]1(C)CC[C@@]1(C)CC=C(C)C[C@]12O [GALPHIMINE D]
> 4 µg/mL: [1] | [2] | [3] | [4]

COC(=O)[C@@]12CC[C@@]3(C)[C@@H]4C=CC(=O)OC[C@]4([C@@H](C)O)[C@@H](OC(C)=O)[C@@H](O)[C@@H]3[C@@]1(C)CC[C@@]1(C)CC=C(C)C[C@]12O [GALPHIMINE E]
> 4 µg/mL: [1] | [2] | [3] | [4]

C=C1CC[C@]2(C)CC[C@]3(C)[C@H]4[C@H](O)C[C@@]5([C@@H](C)O)COC(=O)C=C[C@H]5[C@]4(C)CC[C@@]3(C(=O)OC)[C@]2(O)C1 [GALPHIMINE F]
> 4 µg/mL: [1] | [2] | [3] | [4]

C=C1CC[C@]2(C)CC[C@]3(C)[C@H]4[C@H](O)[C@H](OC(C)=O)[C@@]5([C@@H](C)O)COC(=O)C=C[C@H]5[C@]4(C)CC[C@@]3(C(=O)OC)[C@]2(O)C1 [GALPHIMINE G]
> 4 µg/mL: [1] | [2] | [3] | [4]

C=C1CC[C@]2(C)CC[C@]3(C)[C@H]4[C@H](O)[C@H](O)[C@@]5([C@H](C)O)COC(=O)C=C[C@H]5[C@]4(C)CC[C@@]3(C(=O)OC)[C@]2(O)C1 [GALPHIMINE H]
> 4 µg/mL: [1] | [2] | [3] | [4]

C=C1CC[C@]2(C)CC[C@]3(C)[C@H]4[C@H](OC(C)=O)[C@H](O)[C@@]5([C@H](C)O)COC(=O)C=C[C@H]5[C@]4(C)CC[C@@]3(C(=O)OC)[C@]2(O)C1 [GALPHIMINE I]
> 4 µg/mL: [1] | [2] | [3] | [4]
